# Test results as given in patent US10131652B2, “Pyrimidinyloxy benzene derivatives as herbicides” (E. I. DU PONT DE NEMOURS AND COMPANY, priority 2014, dated 2018).
# Like-named read-outs stand apart in the source and are kept apart here.
# Experiments:
# Assay in all cases: Test E pre-/postemergence plant response
# Assay type in all cases: in vivo
# [1] = test system: blackgrass (Alopecurus myosuroides); settings: scale 0 to 100, read-out: Plant response rating, Blackgrass; for pest or weed control at 16 g/ha: 16 g ai/ha; for pest or weed control at 31 g/ha: 31 g ai/ha; for pest or weed control at 62 g/ha: 62 g ai/ha; for pest or weed control at 125 g/ha: 125 g ai/ha
# In short: (§1)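 Visual scores on a 0–100 scale (100 = complete control) were assigned against untreated controls 7–21 days after treatment in a controlled environment. Compounds, formulated with solvent plus surfactant, were applied to pre-emergence silt-loam sowings or to 1- to 4-leaf plants (2–18 cm) in potting medium.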
# [2] = test system: canarygrass (Phalaris minor); settings: scale 0 to 100, read-out: Plant response rating, Canarygrass; for pest or weed control at 16 g/ha: 16 g ai/ha; for pest or weed control at 31 g/ha: 31 g ai/ha; for pest or weed control at 62 g/ha: 62 g ai/ha; for pest or weed control at 125 g/ha: 125 g ai/ha
# In short: as §1
# [3] = test system: deadnettle (henbit deadnettle, Lamium amplexicaule); settings: pre-emergence, Preemergence, scale 0 to 100, read-out: Plant response rating, Deadnettle
# In short: as §1
# [4] = test system: field poppy (Papaver rhoeas); settings: scale 0 to 100, read-out: Plant response rating, Field Poppy; for pest or weed control at 16 g/ha: 16 g ai/ha; for pest or weed control at 31 g/ha: 31 g ai/ha; for pest or weed control at 62 g/ha: 62 g ai/ha; for pest or weed control at 125 g/ha: 125 g ai/ha
# In short: as §1
# [5] = test system: field violet (Viola arvensis); settings: scale 0 to 100, read-out: Plant response rating, Field Violet; for pest or weed control at 16 g/ha: 16 g ai/ha; for pest or weed control at 31 g/ha: 31 g ai/ha; for pest or weed control at 62 g/ha: 62 g ai/ha; for pest or weed control at 125 g/ha: 125 g ai/ha
# In short: as §1
# [6] = test system: lambsquarters (Chenopodium album); settings: scale 0 to 100, read-out: Plant response rating, Lambsquarters; for pest or weed control at 16 g/ha: 16 g ai/ha; for pest or weed control at 31 g/ha: 31 g ai/ha; for pest or weed control at 62 g/ha: 62 g ai/ha; for pest or weed control at 125 g/ha: 125 g ai/ha
# In short: as §1
# [7] = test system: speedwell (bird's-eye speedwell, Veronica persica); settings: scale 0 to 100, read-out: Plant response rating, Speedwell; for pest or weed control at 16 g/ha: 16 g ai/ha; for pest or weed control at 62 g/ha: 62 g ai/ha; for pest or weed control at 125 g/ha: 125 g ai/ha
# In short: as §1
# [8] = test system: spring barley (Hordeum vulgare); settings: for plant injury at 16 g/ha: 16 g ai/ha; for plant injury at 31 g/ha: 31 g ai/ha; for plant injury at 62 g/ha: 62 g ai/ha; for plant injury at 125 g/ha: 125 g ai/ha
# In short: as §1
# [9] = test system: spring wheat (Triticum aestivum); settings: scale 0 to 100, read-out: Plant response rating, Wheat, Spring; for plant injury at 16 g/ha: 16 g ai/ha; for plant injury at 62 g/ha: 62 g ai/ha; for plant injury at 125 g/ha: 125 g ai/ha
# In short: as §1
# wild oat (Avena fatua) = settings: scale 0 to 100, read-out: Plant response rating, Oat, Wild; for pest or weed control at 16 g/ha: 16 g ai/ha; for pest or weed control at 31 g/ha: 31 g ai/ha; for pest or weed control at 62 g/ha: 62 g ai/ha; for pest or weed control at 125 g/ha: 125 g ai/ha
# In short: as §1
# [10] = test system: winter wheat (Triticum aestivum); settings: scale 0 to 100, read-out: Plant response rating, Wheat, Winter; for plant injury at 16 g/ha: 16 g ai/ha; for plant injury at 62 g/ha: 62 g ai/ha; for plant injury at 125 g/ha: 125 g ai/ha
# In short: as §1
# [11] = post-emergence, 31 g ai/ha, Postemergence
# [12] = post-emergence, Postemergence, scale 0 to 100, read-out: Plant response rating, Barley, Spring
# [13] = pre-emergence, Preemergence, scale 0 to 100, read-out: Plant response rating, Barley, Spring
smiles,measurement,setting,value
"Fc1cccc(Oc2ncc(Cl)cn2)c1-c1cc(C(F)F)no1 [Compound 144, 5-chloro-2-[2-[3-(difluoromethyl)-5-isoxazolyl]-3-fluorophenoxy]pyrimidine]",pest or weed control at 16 g/ha,"[1]; post-emergence, Postemergence",25%
same,pest or weed control at 31 g/ha,"[1]; post-emergence, Postemergence",50%
same,pest or weed control at 62 g/ha,"[1]; post-emergence, Postemergence",60%
same,pest or weed control at 125 g/ha,"[1]; post-emergence, Postemergence",85%
same,pest or weed control at 16 g/ha,"[1]; pre-emergence, Preemergence",15%
same,pest or weed control at 31 g/ha,"[1]; pre-emergence, Preemergence",75%
same,pest or weed control at 62 g/ha,"[1]; pre-emergence, Preemergence",98%
same,pest or weed control at 125 g/ha,"[1]; pre-emergence, Preemergence",100%
same,pest or weed control at 16 g/ha,"[2]; post-emergence, Postemergence",35%
same,pest or weed control at 31 g/ha,"[2]; post-emergence, Postemergence",60%
same,pest or weed control at 62 g/ha,"[2]; post-emergence, Postemergence",65%
same,pest or weed control at 125 g/ha,"[2]; post-emergence, Postemergence",85%
same,pest or weed control at 16 g/ha,"[2]; pre-emergence, Preemergence",35%
same,pest or weed control at 31 g/ha,"[2]; pre-emergence, Preemergence",80%
same,pest or weed control at 62 g/ha,"[2]; pre-emergence, Preemergence",100%
same,pest or weed control at 125 g/ha,"[2]; pre-emergence, Preemergence",100%
same,pest or weed control at 16 g/ha,[3]; 16 g ai/ha,90%
same,pest or weed control at 31 g/ha,[3]; 31 g ai/ha,100%
same,pest or weed control at 62 g/ha,[3]; 62 g ai/ha,100%
same,pest or weed control at 125 g/ha,[3]; 125 g ai/ha,100%
same,pest or weed control at 16 g/ha,"[4]; post-emergence, Postemergence",100%
same,pest or weed control at 31 g/ha,"[4]; post-emergence, Postemergence",100%
same,pest or weed control at 62 g/ha,"[4]; post-emergence, Postemergence",100%
same,pest or weed control at 125 g/ha,"[4]; post-emergence, Postemergence",100%
same,pest or weed control at 16 g/ha,"[4]; pre-emergence, Preemergence",100%
same,pest or weed control at 31 g/ha,"[4]; pre-emergence, Preemergence",100%
same,pest or weed control at 62 g/ha,"[4]; pre-emergence, Preemergence",100%
same,pest or weed control at 125 g/ha,"[4]; pre-emergence, Preemergence",100%
same,pest or weed control at 16 g/ha,"[5]; post-emergence, Postemergence",95%
same,pest or weed control at 31 g/ha,"[5]; post-emergence, Postemergence",90%
same,pest or weed control at 62 g/ha,"[5]; post-emergence, Postemergence",100%
same,pest or weed control at 125 g/ha,"[5]; post-emergence, Postemergence",100%
same,pest or weed control at 16 g/ha,"[5]; pre-emergence, Preemergence",95%
same,pest or weed control at 31 g/ha,"[5]; pre-emergence, Preemergence",100%
same,pest or weed control at 62 g/ha,"[5]; pre-emergence, Preemergence",100%
same,pest or weed control at 125 g/ha,"[5]; pre-emergence, Preemergence",100%
same,pest or weed control at 16 g/ha,"[6]; post-emergence, Postemergence",80%
same,pest or weed control at 31 g/ha,"[6]; post-emergence, Postemergence",95%
same,pest or weed control at 62 g/ha,"[6]; post-emergence, Postemergence",98%
same,pest or weed control at 125 g/ha,"[6]; post-emergence, Postemergence",100%
same,pest or weed control at 16 g/ha,"[6]; pre-emergence, Preemergence",100%
same,pest or weed control at 31 g/ha,"[6]; pre-emergence, Preemergence",100%
same,pest or weed control at 62 g/ha,"[6]; pre-emergence, Preemergence",100%
same,pest or weed control at 125 g/ha,"[6]; pre-emergence, Preemergence",100%
same,pest or weed control at 16 g/ha,"[7]; post-emergence, Postemergence",100%
same,pest or weed control at 31 g/ha,[7]; [11],100%
same,pest or weed control at 62 g/ha,"[7]; post-emergence, Postemergence",100%
same,pest or weed control at 125 g/ha,"[7]; post-emergence, Postemergence",100%
same,pest or weed control at 16 g/ha,"[7]; pre-emergence, Preemergence",100%
same,pest or weed control at 62 g/ha,"[7]; pre-emergence, Preemergence",100%
same,pest or weed control at 125 g/ha,"[7]; pre-emergence, Preemergence",100%
same,plant injury at 16 g/ha,[8]; [12],15%
same,plant injury at 31 g/ha,[8]; [12],25%
same,plant injury at 62 g/ha,[8]; [12],35%
same,plant injury at 125 g/ha,"[8]; post-emergence, Postemergence, scale 0 to 100 (0 no effect, 100 complete control), read-out: Plant response rating, Barley, Spring",45%
same,plant injury at 16 g/ha,[8]; [13],10%
same,plant injury at 31 g/ha,[8]; [13],25%
same,plant injury at 62 g/ha,[8]; [13],45%
same,plant injury at 125 g/ha,[8]; [13],65%
same,plant injury at 16 g/ha,"[9]; post-emergence, Postemergence",25%
same,plant injury at 31 g/ha,[9]; [11],35%
same,plant injury at 62 g/ha,"[9]; post-emergence, Postemergence",45%
same,plant injury at 125 g/ha,"[9]; post-emergence, Postemergence",75%
same,plant injury at 16 g/ha,"[9]; pre-emergence, Preemergence",5%
same,plant injury at 62 g/ha,"[9]; pre-emergence, Preemergence",40%
same,plant injury at 125 g/ha,"[9]; pre-emergence, Preemergence",55%
same,pest or weed control at 16 g/ha,"wild oat (Avena fatua); post-emergence, Postemergence",20%
same,pest or weed control at 31 g/ha,"wild oat (Avena fatua); post-emergence, Postemergence",25%
same,pest or weed control at 62 g/ha,"wild oat (Avena fatua); post-emergence, Postemergence",65%
same,pest or weed control at 125 g/ha,"wild oat (Avena fatua); post-emergence, Postemergence",90%
same,pest or weed control at 16 g/ha,"wild oat (Avena fatua); pre-emergence, Preemergence",35%
same,pest or weed control at 31 g/ha,"wild oat (Avena fatua); pre-emergence, Preemergence",30%
same,pest or weed control at 62 g/ha,"wild oat (Avena fatua); pre-emergence, Preemergence",65%
same,pest or weed control at 125 g/ha,"wild oat (Avena fatua); pre-emergence, Preemergence",75%
same,plant injury at 16 g/ha,"[10]; post-emergence, Postemergence",20%
same,plant injury at 31 g/ha,[10]; [11],30%
same,plant injury at 62 g/ha,"[10]; post-emergence, Postemergence",35%
same,plant injury at 125 g/ha,"[10]; post-emergence, Postemergence",70%
same,plant injury at 16 g/ha,"[10]; pre-emergence, Preemergence",0%
same,plant injury at 62 g/ha,"[10]; pre-emergence, Preemergence",25%
same,plant injury at 125 g/ha,"[10]; pre-emergence, Preemergence",35%
